PubChem BioAssay (NCI)
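Growth conditions: 96-well plates. Treatment: test compound, 48 hours, 5 concentrations. Analysis: linear interpolation between bracketing concentrations; unreached endpoints set to highest concentration. At the TGI there is no net growth.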

How the values were obtained:
Assay in all cases: NCI tumour cell line growth inhibition, 48 h
786-0 renal = test system: 786-0 renal
A498 renal = test system: A498 renal
A549 NSCLC = test system: A549 NSCLC
ACHN renal = test system: ACHN renal
BT-549 breast = test system: BT-549 breast
CAKI-1 renal = test system: CAKI-1 renal
CCRF-CEM leukemia = test system: CCRF-CEM leukemia
COLO 205 colon = test system: COLO 205 colon
DU-145 prostate = test system: DU-145 prostate
EKVX NSCLC = test system: EKVX NSCLC
HCC-2998 colon = test system: HCC-2998 colon
HCT-116 colon = test system: HCT-116 colon
HCT-15 colon = test system: HCT-15 colon
HL-60(TB) leukemia = test system: HL-60(TB) leukemia
HOP-62 NSCLC = test system: HOP-62 NSCLC
HOP-92 NSCLC = test system: HOP-92 NSCLC
HS 578T breast = test system: HS 578T breast
HT29 colon = test system: HT29 colon
IGROV1 ovarian = test system: IGROV1 ovarian
K-562 leukemia = test system: K-562 leukemia
KM12 colon = test system: KM12 colon
LOX IMVI melanoma = test system: LOX IMVI melanoma
M14 melanoma = test system: M14 melanoma
MALME-3M melanoma = test system: MALME-3M melanoma
MCF7 breast = test system: MCF7 breast
MDA-MB-231 breast = test system: MDA-MB-231 breast
MDA-MB-435 = test system: MDA-MB-435
MDA-N = test system: MDA-N
MOLT-4 leukemia = test system: MOLT-4 leukemia
NCI-H226 lung = test system: NCI-H226 lung
NCI-H23 lung = test system: NCI-H23 lung
NCI-H460 lung = test system: NCI-H460 lung
NCI-H522 lung = test system: NCI-H522 lung
NCI/ADR-RES ovarian = test system: NCI/ADR-RES ovarian
OVCAR-3 ovarian = test system: OVCAR-3 ovarian
OVCAR-4 ovarian = test system: OVCAR-4 ovarian
OVCAR-5 ovarian = test system: OVCAR-5 ovarian
OVCAR-8 ovarian = test system: OVCAR-8 ovarian
PC-3 prostate = test system: PC-3 prostate
RPMI-8226 leukemia = test system: RPMI-8226 leukemia
RXF 393 renal = test system: RXF 393 renal
SF-268 CNS = test system: SF-268 CNS
SF-295 CNS = test system: SF-295 CNS
SF-539 CNS = test system: SF-539 CNS
SK-MEL-2 melanoma = test system: SK-MEL-2 melanoma
SK-MEL-28 melanoma = test system: SK-MEL-28 melanoma
SK-MEL-5 melanoma = test system: SK-MEL-5 melanoma
SK-OV-3 ovarian = test system: SK-OV-3 ovarian
SN12C renal = test system: SN12C renal
SNB-19 CNS = test system: SNB-19 CNS
SNB-75 CNS = test system: SNB-75 CNS
SR leukemia = test system: SR leukemia
SW-620 colon = test system: SW-620 colon
T-47D breast = test system: T-47D breast
TK-10 renal = test system: TK-10 renal
U251 CNS = test system: U251 CNS
UACC-257 melanoma = test system: UACC-257 melanoma
UACC-62 melanoma = test system: UACC-62 melanoma
UO-31 renal = test system: UO-31 renal

Work on `O=C(/C=C/c1cccs1)c1cccc(C(=O)/C=C/c2cccs2)n1` yielded a TGI (786-0 renal) of 38.2 µM, a TGI (A498 renal) greater than 100 µM and a TGI (A549 NSCLC) greater than 100 µM. For the same compound, the TGI (ACHN renal) was greater than 100 µM, the TGI (BT-549 breast) was greater than 100 µM and the TGI (CAKI-1 renal) was greater than 100 µM. It also gave a TGI (CCRF-CEM leukemia) of 8.51 µM, a TGI (COLO 205 colon) greater than 100 µM and a TGI (DU-145 prostate) greater than 100 µM. The TGI (EKVX NSCLC) was greater than 100 µM, the TGI (HCC-2998 colon) was greater than 100 µM and the TGI (HCT-116 colon) was 11.3 µM. For the same compound, the TGI (HCT-15 colon) was greater than 100 µM, the TGI (HL-60(TB) leukemia) was 43 µM and the TGI (HOP-62 NSCLC) was greater than 100 µM. The TGI (HOP-92 NSCLC) was greater than 100 µM, the TGI (HS 578T breast) was greater than 94.8 µM and the TGI (HT29 colon) was greater than 34.1 µM. It also gave a TGI (IGROV1 ovarian) greater than 100 µM, a TGI (K-562 leukemia) greater than 100 µM and a TGI (KM12 colon) greater than 66.3 µM. For the same compound, the TGI (LOX IMVI melanoma) was 7.34 µM, the TGI (M14 melanoma) was greater than 100 µM and the TGI (MALME-3M melanoma) was greater than 100 µM. For the same compound, the TGI (MCF7 breast) was greater than 100 µM, the TGI (MDA-MB-231 breast) was greater than 100 µM and the TGI (MDA-MB-435) was greater than 100 µM. It also gave a TGI (MDA-N) greater than 100 µM, a TGI (MOLT-4 leukemia) of 6.54 µM and a TGI (NCI-H226 lung) greater than 100 µM. It also gave a TGI (NCI-H23 lung) greater than 90.6 µM, a TGI (NCI-H460 lung) greater than 100 µM and a TGI (NCI-H522 lung) greater than 100 µM. It also gave a TGI (NCI/ADR-RES ovarian) greater than 100 µM, a TGI (OVCAR-3 ovarian) greater than 100 µM and a TGI (OVCAR-4 ovarian) greater than 100 µM. It also gave a TGI (OVCAR-5 ovarian) greater than 100 µM, a TGI (OVCAR-8 ovarian) of 19.6 µM and a TGI (PC-3 prostate) greater than 100 µM. For the same compound, the TGI (RPMI-8226 leukemia) was 16 µM, the TGI (RXF 393 renal) was greater than 86.9 µM and the TGI (SF-268 CNS) was greater than 68.5 µM. It also gave a TGI (SF-295 CNS) greater than 100 µM, a TGI (SF-539 CNS) of 21.5 µM and a TGI (SK-MEL-2 melanoma) greater than 100 µM. The TGI (SK-MEL-28 melanoma) was greater than 100 µM, the TGI (SK-MEL-5 melanoma) was greater than 100 µM and the TGI (SK-OV-3 ovarian) was greater than 100 µM. The TGI (SN12C renal) was greater than 58.8 µM, the TGI (SNB-19 CNS) was greater than 85 µM and the TGI (SNB-75 CNS) was greater than 100 µM. For the same compound, the TGI (SR leukemia) was greater than 24.6 µM, the TGI (SW-620 colon) was 15.6 µM and the TGI (T-47D breast) was greater than 100 µM. It also gave a TGI (TK-10 renal) greater than 100 µM, a TGI (U251 CNS) greater than 75.8 µM and a TGI (UACC-257 melanoma) greater than 100 µM. It also gave a TGI (UACC-62 melanoma) greater than 100 µM and a TGI (UO-31 renal) greater than 100 µM.
